According to PubChem BioAssay (NCI):
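Values below derive from 48-hour exposures of cells grown in 96-well plates, with endpoints linearly interpolated between the two concentrations bracketing the appropriate inhibition level. TGI is the concentration that stops growth completely.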

Assays:
Assay in all cases: NCI tumour cell line growth inhibition, 48 h
786-0 renal = test system: 786-0 renal
A498 renal = test system: A498 renal
A549 NSCLC = test system: A549 NSCLC
ACHN renal = test system: ACHN renal
CAKI-1 renal = test system: CAKI-1 renal
CCRF-CEM leukemia = test system: CCRF-CEM leukemia
COLO 205 colon = test system: COLO 205 colon
DMS 114 small cell lung = test system: DMS 114 small cell lung
DMS 273 small cell lung = test system: DMS 273 small cell lung
EKVX NSCLC = test system: EKVX NSCLC
HCC-2998 colon = test system: HCC-2998 colon
HCT-116 colon = test system: HCT-116 colon
HCT-15 colon = test system: HCT-15 colon
HL-60(TB) leukemia = test system: HL-60(TB) leukemia
HOP-18 NSCLC = test system: HOP-18 NSCLC
HOP-62 NSCLC = test system: HOP-62 NSCLC
HOP-92 NSCLC = test system: HOP-92 NSCLC
HT29 colon = test system: HT29 colon
IGROV1 ovarian = test system: IGROV1 ovarian
K-562 leukemia = test system: K-562 leukemia
KM20L2 colon = test system: KM20L2 colon
LXFL 529 NSCLC = test system: LXFL 529 NSCLC
M14 melanoma = test system: M14 melanoma
M19-MEL melanoma = test system: M19-MEL melanoma
MALME-3M melanoma = test system: MALME-3M melanoma
MOLT-4 leukemia = test system: MOLT-4 leukemia
NCI-H226 lung = test system: NCI-H226 lung
NCI-H23 lung = test system: NCI-H23 lung
NCI-H460 lung = test system: NCI-H460 lung
NCI-H522 lung = test system: NCI-H522 lung
OVCAR-3 ovarian = test system: OVCAR-3 ovarian
OVCAR-4 ovarian = test system: OVCAR-4 ovarian
OVCAR-5 ovarian = test system: OVCAR-5 ovarian
OVCAR-8 ovarian = test system: OVCAR-8 ovarian
RPMI-8226 leukemia = test system: RPMI-8226 leukemia
RXF 393 renal = test system: RXF 393 renal
SF-268 CNS = test system: SF-268 CNS
SF-295 CNS = test system: SF-295 CNS
SF-539 CNS = test system: SF-539 CNS
SK-MEL-2 melanoma = test system: SK-MEL-2 melanoma
SK-MEL-28 melanoma = test system: SK-MEL-28 melanoma
SK-MEL-5 melanoma = test system: SK-MEL-5 melanoma
SK-OV-3 ovarian = test system: SK-OV-3 ovarian
SN12C renal = test system: SN12C renal
SNB-19 CNS = test system: SNB-19 CNS
SNB-75 CNS = test system: SNB-75 CNS
SNB-78 CNS = test system: SNB-78 CNS
SW-620 colon = test system: SW-620 colon
TK-10 renal = test system: TK-10 renal
U251 CNS = test system: U251 CNS
UACC-257 melanoma = test system: UACC-257 melanoma
UACC-62 melanoma = test system: UACC-62 melanoma
XF 498 CNS = test system: XF 498 CNS
DLD-1 colon = test system: DLD-1 colon
SR leukemia = test system: SR leukemia
UO-31 renal = test system: UO-31 renal

Measured: TGI

O=C(O)CCC1(Br)CCCCC(Br)C1=O (stereo not drawn)
> 100 µM: 786-0 renal | A498 renal | A549 NSCLC | ACHN renal | CAKI-1 renal | CCRF-CEM leukemia | COLO 205 colon | DMS 114 small cell lung | DMS 273 small cell lung | EKVX NSCLC | HCC-2998 colon | HCT-116 colon | HCT-15 colon | HL-60(TB) leukemia | HOP-18 NSCLC | HOP-62 NSCLC | HOP-92 NSCLC | HT29 colon | IGROV1 ovarian | K-562 leukemia | KM20L2 colon | LXFL 529 NSCLC | M14 melanoma | M19-MEL melanoma | MALME-3M melanoma | MOLT-4 leukemia | NCI-H226 lung | NCI-H23 lung | NCI-H460 lung | NCI-H522 lung | OVCAR-3 ovarian | OVCAR-4 ovarian | OVCAR-5 ovarian | OVCAR-8 ovarian | RPMI-8226 leukemia | RXF 393 renal | SF-268 CNS | SF-295 CNS | SF-539 CNS | SK-MEL-2 melanoma | SK-MEL-28 melanoma | SK-MEL-5 melanoma | SK-OV-3 ovarian | SN12C renal | SNB-19 CNS | SNB-75 CNS | SNB-78 CNS | SW-620 colon | TK-10 renal | U251 CNS | UACC-257 melanoma | UACC-62 melanoma | XF 498 CNS

O=C1C2CCC(C2)C12CC1(c3ccccc3)C(=O)c3ccccc3N1O2 (stereo not drawn)
> 100 µM: 786-0 renal | A498 renal | A549 NSCLC | ACHN renal | CCRF-CEM leukemia | COLO 205 colon | DLD-1 colon | DMS 114 small cell lung | DMS 273 small cell lung | EKVX NSCLC | HCC-2998 colon | HCT-116 colon | HCT-15 colon | HL-60(TB) leukemia | HOP-18 NSCLC | HOP-62 NSCLC | HOP-92 NSCLC | HT29 colon | IGROV1 ovarian | K-562 leukemia | KM20L2 colon | LXFL 529 NSCLC | M14 melanoma | M19-MEL melanoma | MALME-3M melanoma | MOLT-4 leukemia | NCI-H226 lung | NCI-H23 lung | NCI-H522 lung | OVCAR-4 ovarian | OVCAR-8 ovarian | RPMI-8226 leukemia | RXF 393 renal | SF-268 CNS | SF-295 CNS | SF-539 CNS | SK-MEL-28 melanoma | SK-MEL-5 melanoma | SK-OV-3 ovarian | SN12C renal | SNB-19 CNS | SNB-75 CNS | SNB-78 CNS | SR leukemia | SW-620 colon | U251 CNS | UACC-257 melanoma | UACC-62 melanoma | UO-31 renal | XF 498 CNS
